Patent EP0380359A1, “Biocidal compositions and treatments” (Albright & Wilson Limited, priority 1989, dated 1990)

System: infected cooling water
Experiment: Biocide test: bacterial counts in dosed samples of infected cooling water after 17 hours
Format: cell-based
Settings: for bacterial counts per ml.: Table 2 (Example 6), control 10⁷
Method: Ethyl tris (hydroxymethyl) phosphonium chloride (Ethyl THPC) prepared according to the method of example 4, THPS, and a tetrakis (1 - hydroxy ethyl) phosphonium chloride (comparative example) were each dosed at four different concentrations to separate samples of an infected cooling water.
Bacterial counts per ml. of solution were estimated after 17 hours. The results are set out in Table 1 Table 1
Methyl tris (hydroxy methyl) phosphonium chloride (methyl THPC), THPS, and two other comparative examples, cyclohexyl tris (hydroxy methyl) phosphonium chloride and octyl tris (hydroxy methyl) phosphonium sulphate were each added at concentrations of 50, 200 and 1,000 ppm to separate samples of an infected cooling water.
Allyl tris (hydroxymethyl) phosphonium bromide (allyl THPB) prepared as described in Ex3 was compared with 2, 6-dichlorobenzyl tris (hydroxymethyl) phosphonium bromide and THPS in a biocide test as described in example 5. […]

[1] = Example 5, summary in words of Table 1
[2] = Table 1 (Example 5), 150 ppm, after 17 hours, control 10⁶
[3] = Table 1 (Example 5), 200 ppm, after 17 hours, control 10⁶
[4] = Table 3 (Example 7), 100 ppm, test as in example 5
[5] = Table 3 (Example 7), 150 ppm, test as in example 5
[6] = Table 3 (Example 7), 200 ppm, test as in example 5

Structure (SMILES) | bactericidal activity [1] | Bacterial counts per ml. of solution (Table 1 (Example 5), 100 ppm, after 17 hours, control 10⁶) | Bacterial counts per ml. of solution [2] | Bacterial counts per ml. of solution [3] | bacterial counts per ml. (200 ppm, after 17 hours) | bacterial counts per ml. (1000 ppm, after 17 hours) | bactericidal activity (Example 7, summary in words of Table 3) | Bacterial counts per ml. of solution [4] | Bacterial counts per ml. of solution [5] | Bacterial counts per ml. of solution [6]
CC[P+](CO)(CO)CO.[Cl-] [ETHYL THPC, Ethyl tris (hydroxymethyl) phosphonium chloride] | more effective than THPS at lower concentrations | 0 per ml | 0 per ml | 0 per ml |  |  |  |  |  | 
C[P+](CO)(CO)CO.[Cl-] [METHYL THPC, Methyl tris (hydroxy methyl) phosphonium chloride] |  |  |  |  | 0 per ml | 0 per ml |  |  |  | 
C=CC[P+](CO)(CO)CO.[Br-] [ALLYL THPB, Allyl tris (hydroxymethyl) phosphonium bromide] |  |  |  |  |  |  | performs at least as well as THPS | 0 per ml | 0 per ml | 0 per ml
OC[P+](CO)(CO)CO [THPS, reference compound] | effective |  | 0 per ml | 0 per ml | 0 per ml | 0 per ml |  | 0 per ml | 0 per ml | 0 per ml
